Experiments:
[1] = molecular target: T1, LRRK2, LRRK2 (G2019S), DYRK1, CLK1 and TTK kinases (Homo sapiens, UniProt Q13627); assay: Enzyme IC50 by Kinase HotSpot service (Reaction Biology Corporation), values marked with *; assay type: biochemical; conditions: DYRK1, ATP 10 uM
T1 construct: other: DYRK1; Kinase HotSpot service (Reaction Biology), ATP 10 uM
Summary of the method: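 Radiometric-service kinase assays (Reaction Biology HotSpot protocol) run at 10 uM ATP under uniform conditions. Compounds tested as 3-fold dilution series from a top concentration of […] to give IC50.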

[2] = molecular target: T2, ALK (L1196M) (Homo sapiens, UniProt Q9UM73, L1196M); assay: scanMAX Kinase panel (DiscoverX), % control; assay type: binding; conditions: <35% = active
T2 construct: purchased DiscoverX
Protocol: (§1) Specifically, for Examples 162, 160, 105, 217, 205, 96, 207, 184, 206, 221, 238, and 237 selected among the example compounds of the present invention, it was decided to measure enzyme (kinase) selectivity by DiscoverX, and the experiment was conducted using a panel for scanMAX™ Kinase analysis. At this time, the concentration of the drug treated with the enzyme was 1 uM in DMSO, the control percentage (% control) was determined in the same way as in Equation 1 below, and the results were shown in Table 6 below. [formula] Here, the positive control refers to a compound showing a control percentage of 0%, and the negative control is DMSO, indicating a control percentage of 100%. Also, in the enzyme selectivity of the present invention, if the control percentage for each enzyme was <35% (i.e., less than 35%), it was determined to have activity against the relevant enzyme.

[3] = molecular target: T3, DYRK1A (Homo sapiens, UniProt Q13627); assay: scanMAX Kinase panel (DiscoverX), % control; assay type: binding; conditions: <35% = active
T3 construct: purchased DiscoverX
Protocol: as §1

[4] = molecular target: T4, GAK (Homo sapiens, UniProt O14976); assay: scanMAX Kinase panel (DiscoverX), % control; assay type: binding; conditions: <35% = active
T4 construct: purchased DiscoverX
T4 sequence (O14976 1-1311): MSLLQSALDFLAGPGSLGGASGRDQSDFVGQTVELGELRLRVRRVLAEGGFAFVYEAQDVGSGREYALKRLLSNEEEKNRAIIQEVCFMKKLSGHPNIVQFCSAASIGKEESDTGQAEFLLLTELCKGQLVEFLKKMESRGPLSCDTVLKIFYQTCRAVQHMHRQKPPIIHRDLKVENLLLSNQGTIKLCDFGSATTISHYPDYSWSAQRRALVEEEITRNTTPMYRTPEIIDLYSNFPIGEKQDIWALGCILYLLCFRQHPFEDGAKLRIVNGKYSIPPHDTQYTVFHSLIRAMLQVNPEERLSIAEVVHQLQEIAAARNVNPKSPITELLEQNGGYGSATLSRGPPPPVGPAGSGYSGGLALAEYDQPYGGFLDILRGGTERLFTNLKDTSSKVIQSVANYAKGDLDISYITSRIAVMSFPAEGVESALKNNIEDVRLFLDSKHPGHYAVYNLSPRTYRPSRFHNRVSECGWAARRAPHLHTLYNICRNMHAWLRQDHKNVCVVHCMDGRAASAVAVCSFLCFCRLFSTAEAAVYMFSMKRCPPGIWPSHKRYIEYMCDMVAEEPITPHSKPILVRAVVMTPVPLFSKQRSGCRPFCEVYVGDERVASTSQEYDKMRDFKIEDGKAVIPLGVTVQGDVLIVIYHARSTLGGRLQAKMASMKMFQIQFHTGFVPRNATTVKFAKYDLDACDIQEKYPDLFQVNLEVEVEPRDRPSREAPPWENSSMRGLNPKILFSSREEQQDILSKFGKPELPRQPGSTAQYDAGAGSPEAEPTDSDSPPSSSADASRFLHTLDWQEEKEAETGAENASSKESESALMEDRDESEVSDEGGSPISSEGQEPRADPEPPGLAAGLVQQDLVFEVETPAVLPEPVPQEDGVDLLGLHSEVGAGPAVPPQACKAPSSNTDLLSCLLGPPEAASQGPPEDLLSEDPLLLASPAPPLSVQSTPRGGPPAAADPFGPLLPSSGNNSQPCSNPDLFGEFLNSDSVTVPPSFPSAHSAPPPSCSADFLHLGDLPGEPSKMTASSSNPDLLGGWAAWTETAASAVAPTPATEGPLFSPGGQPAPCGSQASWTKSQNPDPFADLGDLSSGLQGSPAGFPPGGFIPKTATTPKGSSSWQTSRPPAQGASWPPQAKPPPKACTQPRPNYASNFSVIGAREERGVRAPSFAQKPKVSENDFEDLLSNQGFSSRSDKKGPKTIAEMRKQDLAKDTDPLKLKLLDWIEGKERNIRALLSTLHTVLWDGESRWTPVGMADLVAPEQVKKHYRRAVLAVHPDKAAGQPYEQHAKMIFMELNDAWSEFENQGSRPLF
Protocol: as §1

[5] = molecular target: T5, MYLK (Homo sapiens, UniProt Q15746); assay: scanMAX Kinase panel (DiscoverX), % control; assay type: binding; conditions: <35% = active
T5 construct: purchased DiscoverX
Protocol: as §1

[6] = molecular target: T6, CLK4 (Homo sapiens, UniProt Q9HAZ1); assay: scanMAX Kinase panel (DiscoverX), % control; assay type: binding; conditions: <35% = active
T6 construct: purchased DiscoverX
Protocol: as §1

[7] = molecular target: LRRK2 (Homo sapiens, UniProt Q5S007); assay: scanMAX Kinase panel (DiscoverX), % control; assay type: binding; parameters: purchased DiscoverX; conditions: <35% = active
Protocol: as §1

T2 sequence (Q9UM73 19-1620 L1196M): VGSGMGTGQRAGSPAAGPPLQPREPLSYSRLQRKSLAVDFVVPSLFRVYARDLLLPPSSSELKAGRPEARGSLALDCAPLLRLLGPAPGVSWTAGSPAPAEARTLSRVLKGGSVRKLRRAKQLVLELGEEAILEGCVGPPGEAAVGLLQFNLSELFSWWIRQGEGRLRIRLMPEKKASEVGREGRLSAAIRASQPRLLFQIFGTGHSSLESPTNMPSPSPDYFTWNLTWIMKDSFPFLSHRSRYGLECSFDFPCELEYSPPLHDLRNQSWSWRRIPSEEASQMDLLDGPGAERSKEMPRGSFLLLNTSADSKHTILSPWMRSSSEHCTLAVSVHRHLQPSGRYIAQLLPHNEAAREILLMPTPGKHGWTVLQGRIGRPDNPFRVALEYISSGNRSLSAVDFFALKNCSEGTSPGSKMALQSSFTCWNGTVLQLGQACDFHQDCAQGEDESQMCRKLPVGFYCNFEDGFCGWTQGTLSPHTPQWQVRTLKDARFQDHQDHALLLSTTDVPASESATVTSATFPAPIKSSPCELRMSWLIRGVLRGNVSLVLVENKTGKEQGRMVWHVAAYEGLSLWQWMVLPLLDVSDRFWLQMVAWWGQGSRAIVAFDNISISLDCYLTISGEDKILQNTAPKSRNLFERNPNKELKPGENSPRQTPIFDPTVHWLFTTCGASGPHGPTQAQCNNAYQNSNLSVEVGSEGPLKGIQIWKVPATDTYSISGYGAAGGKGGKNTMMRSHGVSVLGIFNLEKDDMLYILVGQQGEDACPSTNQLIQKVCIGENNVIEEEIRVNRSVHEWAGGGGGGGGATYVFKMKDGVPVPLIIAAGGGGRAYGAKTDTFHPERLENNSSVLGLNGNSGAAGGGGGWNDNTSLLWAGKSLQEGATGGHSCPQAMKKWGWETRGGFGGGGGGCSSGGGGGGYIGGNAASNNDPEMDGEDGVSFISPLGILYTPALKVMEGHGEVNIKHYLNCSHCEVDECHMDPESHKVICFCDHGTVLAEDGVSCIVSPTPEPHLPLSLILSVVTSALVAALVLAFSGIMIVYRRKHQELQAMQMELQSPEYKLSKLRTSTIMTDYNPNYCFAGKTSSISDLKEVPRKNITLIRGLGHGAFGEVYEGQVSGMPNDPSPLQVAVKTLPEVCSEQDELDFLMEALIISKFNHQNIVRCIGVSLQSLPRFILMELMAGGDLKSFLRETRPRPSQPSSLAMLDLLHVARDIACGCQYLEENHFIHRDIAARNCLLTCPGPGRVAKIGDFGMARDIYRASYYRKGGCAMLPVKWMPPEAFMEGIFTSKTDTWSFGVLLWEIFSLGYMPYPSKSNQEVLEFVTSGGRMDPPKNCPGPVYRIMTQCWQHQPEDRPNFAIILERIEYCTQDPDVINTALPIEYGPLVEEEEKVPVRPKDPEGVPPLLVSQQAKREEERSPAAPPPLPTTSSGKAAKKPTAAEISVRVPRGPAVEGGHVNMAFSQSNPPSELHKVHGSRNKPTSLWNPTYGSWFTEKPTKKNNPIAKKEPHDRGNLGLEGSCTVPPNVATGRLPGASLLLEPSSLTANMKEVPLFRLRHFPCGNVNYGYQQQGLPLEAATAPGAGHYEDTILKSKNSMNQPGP
Chain of LRRK2 (Q5S007 whole entry): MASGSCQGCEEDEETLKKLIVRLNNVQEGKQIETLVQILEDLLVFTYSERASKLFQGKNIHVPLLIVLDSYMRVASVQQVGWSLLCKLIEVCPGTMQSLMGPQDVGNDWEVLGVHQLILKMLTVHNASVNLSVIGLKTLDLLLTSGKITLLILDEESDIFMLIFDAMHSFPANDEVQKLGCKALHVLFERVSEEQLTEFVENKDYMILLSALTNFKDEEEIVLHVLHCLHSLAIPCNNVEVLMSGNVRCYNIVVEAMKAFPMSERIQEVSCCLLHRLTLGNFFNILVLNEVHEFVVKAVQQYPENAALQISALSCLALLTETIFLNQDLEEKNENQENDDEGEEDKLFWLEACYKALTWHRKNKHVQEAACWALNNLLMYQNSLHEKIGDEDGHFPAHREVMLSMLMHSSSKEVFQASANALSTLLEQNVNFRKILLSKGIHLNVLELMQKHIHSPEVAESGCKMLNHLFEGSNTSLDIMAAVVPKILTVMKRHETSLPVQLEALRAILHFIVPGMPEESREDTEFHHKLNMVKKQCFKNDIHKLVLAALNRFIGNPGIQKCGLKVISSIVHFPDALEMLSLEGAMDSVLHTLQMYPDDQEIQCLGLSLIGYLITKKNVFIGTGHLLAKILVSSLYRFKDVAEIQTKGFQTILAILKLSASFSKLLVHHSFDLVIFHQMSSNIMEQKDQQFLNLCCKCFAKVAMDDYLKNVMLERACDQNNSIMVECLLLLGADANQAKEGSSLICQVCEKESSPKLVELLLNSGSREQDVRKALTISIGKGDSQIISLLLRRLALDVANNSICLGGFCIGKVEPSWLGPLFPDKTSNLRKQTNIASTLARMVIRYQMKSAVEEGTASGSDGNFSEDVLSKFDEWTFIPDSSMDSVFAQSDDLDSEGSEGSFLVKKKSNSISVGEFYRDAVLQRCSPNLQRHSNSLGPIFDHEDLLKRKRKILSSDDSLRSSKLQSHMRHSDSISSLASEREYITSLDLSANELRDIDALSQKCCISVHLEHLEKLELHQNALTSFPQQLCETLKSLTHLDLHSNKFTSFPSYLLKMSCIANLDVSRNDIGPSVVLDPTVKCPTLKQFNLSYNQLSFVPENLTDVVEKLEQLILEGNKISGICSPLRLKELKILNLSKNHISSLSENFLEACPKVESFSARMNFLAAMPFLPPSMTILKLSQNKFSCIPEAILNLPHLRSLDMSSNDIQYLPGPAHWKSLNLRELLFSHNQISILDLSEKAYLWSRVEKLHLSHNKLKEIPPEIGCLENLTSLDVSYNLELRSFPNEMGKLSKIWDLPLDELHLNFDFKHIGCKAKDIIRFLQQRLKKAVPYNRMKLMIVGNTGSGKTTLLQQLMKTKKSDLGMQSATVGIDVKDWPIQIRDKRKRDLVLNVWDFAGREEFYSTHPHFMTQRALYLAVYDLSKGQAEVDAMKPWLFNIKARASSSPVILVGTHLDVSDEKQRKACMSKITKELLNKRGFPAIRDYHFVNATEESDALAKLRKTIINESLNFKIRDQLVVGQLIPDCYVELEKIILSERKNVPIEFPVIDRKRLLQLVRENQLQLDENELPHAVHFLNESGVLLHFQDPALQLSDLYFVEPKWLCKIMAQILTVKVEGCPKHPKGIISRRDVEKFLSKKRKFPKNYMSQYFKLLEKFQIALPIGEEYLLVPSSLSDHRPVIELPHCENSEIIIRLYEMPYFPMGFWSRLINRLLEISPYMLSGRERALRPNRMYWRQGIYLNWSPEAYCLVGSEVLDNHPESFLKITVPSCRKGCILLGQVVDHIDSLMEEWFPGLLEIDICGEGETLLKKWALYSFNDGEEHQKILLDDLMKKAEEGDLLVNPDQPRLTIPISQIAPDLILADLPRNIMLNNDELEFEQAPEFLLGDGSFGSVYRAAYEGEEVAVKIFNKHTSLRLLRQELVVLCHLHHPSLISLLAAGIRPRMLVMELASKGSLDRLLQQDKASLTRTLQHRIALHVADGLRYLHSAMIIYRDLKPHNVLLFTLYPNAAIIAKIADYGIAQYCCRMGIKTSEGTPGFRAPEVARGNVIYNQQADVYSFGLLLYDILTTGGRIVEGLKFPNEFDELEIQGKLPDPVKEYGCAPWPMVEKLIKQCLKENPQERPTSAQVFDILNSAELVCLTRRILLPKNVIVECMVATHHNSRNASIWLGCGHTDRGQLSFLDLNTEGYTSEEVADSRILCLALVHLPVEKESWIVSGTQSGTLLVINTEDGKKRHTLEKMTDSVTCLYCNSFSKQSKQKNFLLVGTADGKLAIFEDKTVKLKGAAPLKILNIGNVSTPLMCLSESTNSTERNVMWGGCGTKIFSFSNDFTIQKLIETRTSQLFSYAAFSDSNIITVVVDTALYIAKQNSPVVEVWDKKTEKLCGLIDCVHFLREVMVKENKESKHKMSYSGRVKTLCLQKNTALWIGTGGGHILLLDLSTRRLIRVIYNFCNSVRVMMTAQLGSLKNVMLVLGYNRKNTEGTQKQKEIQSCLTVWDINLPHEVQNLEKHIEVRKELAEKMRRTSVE
T6 sequence (Q9HAZ1 whole entry): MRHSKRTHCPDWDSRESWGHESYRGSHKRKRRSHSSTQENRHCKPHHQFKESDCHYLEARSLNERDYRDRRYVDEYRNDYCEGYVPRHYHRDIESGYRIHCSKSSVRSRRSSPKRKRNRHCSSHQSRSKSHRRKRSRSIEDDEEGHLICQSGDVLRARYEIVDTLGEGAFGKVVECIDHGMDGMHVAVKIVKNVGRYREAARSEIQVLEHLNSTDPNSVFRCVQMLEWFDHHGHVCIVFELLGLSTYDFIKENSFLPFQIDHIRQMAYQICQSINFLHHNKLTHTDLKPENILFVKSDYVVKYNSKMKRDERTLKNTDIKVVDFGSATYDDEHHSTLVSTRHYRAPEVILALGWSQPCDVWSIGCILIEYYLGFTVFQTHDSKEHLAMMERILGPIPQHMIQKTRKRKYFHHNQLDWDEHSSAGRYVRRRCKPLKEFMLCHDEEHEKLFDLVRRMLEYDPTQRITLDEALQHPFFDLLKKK

Structure (SMILES)	IC50 [1] [nM]	remaining binding at 1 µM [2] [%]	remaining binding at 1 µM [3] [%]	remaining binding at 1 µM [4] [%]	remaining binding at 1 µM [5] [%]	remaining binding at 1 µM [6] [%]	remaining binding at 1 µM [7] [%]
O=C(c1ccc(Nc2cc(C3CC3)c3c(C(F)(F)F)c[nH]c3n2)c2c1CCO2)N1CCC(N2CCOCC2)CC1 [Example 93, (7-((4-cyclopropyl-3-(trifluoromethyl)-1H-pyrrolo[2,3-b]pyridin-6-yl)amino)-2,3-dihydrobenzofuran-4-yl)(4-morpholinopiperidin-1-yl)mthanone]	< 100	–	–	–	–	–	–
CCCNc1cc(Nc2ccc(C(=O)N3CCC(N4CCOCC4)CC3)c3c2OCCO3)nc2[nH]cc(C(F)(F)F)c12 [Example 162, (4-morpholinopiperidin-1-yl)(8-((4-(propylamino)-3-(trifluoromethyl)-1H-pyrrolo[2,3-b]pyridin-6-yl)amino)-2,3-dihydrobenzo[b] [1,4]dioxin-5-yl)methanone]	–	1.3	0.35	6.3	0	0.55	2.8
O=C(c1ccc(Nc2cc(C3CC3)c3c(C(F)(F)F)c[nH]c3n2)c2c1OCO2)N1CCC(N2CCOCC2)CC1 [Example 49, (7-((4-cyclopropyl-3-(trifluoromethyl)-1H-pyrrolo[2,3-b]pyridin-6-yl)amino)benzo[d][1,3]dioxol-4-yl)(4-morpholinopiperidin-1-yl)methanone]	101 to 300	–	–	–	–	–	–
N#Cc1c[nH]c2nc(Nc3ccc(C(=O)N4CCC(N5CCOCC5)CC4)c4c3OCCO4)cc(C3CC3)c12 [Example 226, 4-cyclopropyl-6-((8-(4-morpholinopiperidine-1-carbonyl)-2,3-dihydrobenzo[b] [1,4]dioxin-5-yl)amino)-1H-pyrrolo[2,3-b]pyridine-3-carbonitrile]	< 100	–	–	–	–	–	–
COCCNc1cc(Nc2ccc(P3(=O)CCN(C4CC4)CC3)cc2OC)nc2[nH]cc(C(F)(F)F)c12 [Example 207, 1-cyclopropyl-4-(3-methoxy-4-((4-((2-methoxyethyl)amino)-3-(trifluoromethyl)-1H-pyrrolo[2,3-b]pyridin-6-yl)amino)phenyl)-1,4-azaphosphinane 4-oxide]	–	10	0.4	38	5.3	0.55	20
CCNc1cc(Nc2ccc(S(=O)(=O)N3CCC(N4CCOCC4)CC3)c3c2OCCO3)nc2[nH]cc(C(F)(F)F)c12 [Example 96, N^4-ethyl-N^6-(8-((4-morpholonopiperidin-1-yl)sulfonyl)-2,3-dihydrobenzo [b] [1,4]dioxin-5-yl)-3-(trifluoromethyl)-1H-pyrrolo[2,3-b]pyridine-4,6-diamine]	–	28	1.3	14	37	0.3	4.5
COc1cc(S(=O)(=O)N2CCC(N3CCOCC3)CC2)ccc1Nc1cc(C2CC2)c2c(C#N)c[nH]c2n1 [Example 228, 4-cyclopropyl-6-((2-methoxy-4-((4-morpholinopiperidin-1-yl)sulfonyl)phenyl)amino)-1H-pyrrolo[2,3-b]pyridine-3-carbonitrile]	< 100	–	–	–	–	–	–
COc1cc(P2(=O)CCN(C(C)=O)CC2)ccc1Nc1cc(C2CC2)c2c(C(F)(F)F)c[nH]c2n1 [Example 48, 1-(4-(4-((4-cyclopropyl-3-(trifluoromethyl)-1H-pyrrolo[2,3-b]pyridin-6-yl)amino)-3-methoxyphenyl)-4-oxido-1,4-azaphosphinan-1-yl)ethan-1-one]	< 100	–	–	–	–	–	–
CCNc1cc(Nc2ccc(P3(=O)CCN(C4CC4)CC3)cc2OC)nc2[nH]cc(C(F)(F)F)c12 [Example 206, 1-cyclopropyl-4-(4-((4-(ethylamino)-3-(trifluoromethyl)-1H-pyrrolo[2,3-b]pyridin-6-yl)amino)-3-methoxyphenyl)-1,4-azaphosphinane 4-oxide]	–	23	2	29	3	1.2	23
COc1cc(S(=O)(=O)N2CCOCC2)ccc1Nc1cc(C2CC2)c2c(C(F)(F)F)c[nH]c2n1 [Example 222, 4-cyclopropyl-N-(2-methoxy-4-(morpholinosulfonyl)phenyl)-3-(trifluoromethyl)-1H-pyrrolo[2,3-b]pyridin-6-amine]	101 to 300	–	–	–	–	–	–
CNc1cc(Nc2ccc(P3(=O)CCN(C4CC4)CC3)cc2OC)nc2[nH]cc(C(F)(F)F)c12 [Example 205, 1-cyclopropyl-4-(3-methoxy-4-((4-(methylamino)-3-(trifluoromethyl)-1H-pyrrolo[2,3-b]pyridin-6-yl)amino)phenyl)-1,4-azaphosphinane 4-oxide]	–	1.6	0.25	12	0	0.25	18
CCNc1cc(Nc2ccc(C(=O)N3CCC(N4C[C@@H]5C[C@H]4CO5)CC3)c3c2OCC3)nc2[nH]cc(C(F)(F)F)c12 [Example 105, (4-((1S,4S)-2-oxa-5-azabicyclo[2.2.1]heptan-5-yl)piperidin-1-yl)(7-((4-(ethylamino)-3-(trifluoromethyl)-1H-pyrrolo[2,3-b]pyridin-6-yl)amino)-2,3-dihydrobenzofuran-4-yl)methanone]	–	2.3	0	4.8	1.3	5.5	0
CNc1cc(Nc2ccc(C(=O)N3CCC(N4CCOCC4)CC3)c3c2OCCO3)nc2[nH]cc(C(F)(F)F)c12 [Example 160, (8-((4-(methylamino)-3-(trifluoromethyl)-1H-pyrrolo[2,3-b]pyridin-6-yl)amino)-2,3-dihydrobenzo [b] [1,4]dioxin-5-yl)(4-morpholinopiperidin-1-yl)methanone]	–	1.3	0.35	6.3	0	0.55	2.8
N#Cc1c[nH]c2nc(Nc3ccc(C(=O)N4CCOCC4)c4c3OCCO4)cc(C3CC3)c12 [Example 225, 4-cyclopropyl-6-((8-(morpholine-4-carbonyl)-2,3-dihydrobenzo[b] [1,4]dioxin-5-yl)amino)-1H-pyrrolo[2,3-b]pyridine-3-carbonitrile]	101 to 300	–	–	–	–	–	–
O=C(c1ccc(Nc2cc(C3CC3)c3c(C(F)(F)F)c[nH]c3n2)c2c1CCO2)N1CCOCC1 [Example 91, (7-((4-cyclopropyl-3-(trifluoromethyl)-1H-pyrrolo[2,3-b]pyridin-6-yl)amino)-2,3-dihydrobenzofuran-4-yl)(morpholino) methanone]	< 100	–	–	–	–	–	–

Source: US12240844B2 (Voronoi, Inc., priority 2019, dated 2025)
